Assays:
Type in all cases: cell-based
KRAS G12V = biological target: T1, KRAS G12V (Homo sapiens, UniProt P01116, G12V); experiment: KRAS G12V HiBit assay; conditions: SW620-KRAS (G12V)-HiBit-KI cells, compound treatment for 24 hours, class symbols
T1 construct: SW620-KRAS (G12V)-HiBit-KI cell (Pharmaron); host or cells: SW620-KRAS (G12V)-HiBit-KI cells (HiBiT knock-in at the endogenous KRAS locus)
Outline: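 HiBiT-tagged KRAS G12V cells treated 24 h with compound in a 3-fold, 10-point series (0.3 mM DMSO stock); lytic HiBiT reagent with LgBiT added after 15 min room-temperature equilibration. Degradation calculated against 0.1% DMSO high control.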

KRAS = biological target: T2, KRAS (Homo sapiens, UniProt P01116); experiment: KRASamp MSD assay; conditions: KE39 (KRAS amplified) cells, treated with test compounds for 24 hr, MSD readout of KRAS degradation
T2 construct: endogenous in cells; host or cells: KE39 (KRAS amplified) cells
T2 sequence (P01116 1-188 isoform P01116-2): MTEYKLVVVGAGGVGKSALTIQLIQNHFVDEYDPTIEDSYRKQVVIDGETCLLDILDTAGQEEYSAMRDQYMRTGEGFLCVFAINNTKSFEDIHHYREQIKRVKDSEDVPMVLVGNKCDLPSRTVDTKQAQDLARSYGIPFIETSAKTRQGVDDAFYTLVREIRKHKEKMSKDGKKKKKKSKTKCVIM
Outline: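 KRAS-amplified KE39 cells treated with compound for 24 hr, then lysed in RIPA buffer with protease/phosphatase inhibitors. KRAS protein measured by MSD sandwich immunoassay against a recombinant WT KRAS standard curve; DC50 derived from curve fitting of degradation.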

KRAS G12D = biological target: T3, KRAS G12D (Homo sapiens, UniProt P01116, G12D); experiment: KRAS G12D HiBit assay; conditions: AsPc-1-KRAS (G12D)-HiBit-KI cell, compound treatment for 24 hours; for DC50: absolute DC50
T3 construct: AsPc-1-KRAS (G12D)-HiBit-KI cell (Pharmaron); host or cells: AsPc-1-KRAS (G12D)-HiBit-KI cells (HiBiT knock-in at the endogenous KRAS locus)
T3 sequence (P01116 1-188 isoform P01116-2 G12D): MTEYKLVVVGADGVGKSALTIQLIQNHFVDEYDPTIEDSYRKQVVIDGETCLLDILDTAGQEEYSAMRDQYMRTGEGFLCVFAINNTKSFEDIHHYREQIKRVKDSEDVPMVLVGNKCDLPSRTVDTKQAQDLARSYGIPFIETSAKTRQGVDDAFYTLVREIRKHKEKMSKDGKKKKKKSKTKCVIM
Outline: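 Cells were treated for 24 h with compounds in a 3-fold, 10-point dilution series from a 0.3 mM DMSO stock, then equilibrated 15 min at room temperature. KRAS G12D HiBiT levels were read by luminescence after lytic Nano-Glo HiBiT reagent with LgBiT; inhibition calculated relative to 0.1% DMSO high control.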

[1] = numeric bounds given in place of class symbols

T1 sequence (P01116 1-188 isoform P01116-2 G12V): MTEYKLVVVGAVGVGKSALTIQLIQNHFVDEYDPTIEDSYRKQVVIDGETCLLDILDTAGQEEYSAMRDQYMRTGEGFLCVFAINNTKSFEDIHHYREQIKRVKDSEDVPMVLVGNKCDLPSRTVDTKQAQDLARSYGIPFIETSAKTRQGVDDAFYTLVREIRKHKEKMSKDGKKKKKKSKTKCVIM

CCc1c(F)ccc2cc(O)cc(-c3ncc4c(N5CCC[C@@](C)(O)C5)nc(OC[C@@]56CCCN5[C@@H](COC(=O)N5CCC(COc7ccc8c(c7)n(C)c(=O)n8C7CCC(=O)NC7=O)CC5)CC6)nc4c3F)c12 (stereo partly drawn) [Compound 314, ((3R,7aS)-7a-(((7-(8-ethyl-7-fluoro-3-hydroxynaphthalen-1-yl)-8-fluoro-4-((R)-3-hydroxy-3-methylpiperidin-1-yl)pyrido[4,3-d]pyrimidin-2-yl)oxy)methyl)hexahydro-1H-pyrrolizin-3-yl)methyl 4-(((1-(2,6-dioxopiperidin-3-yl)-3-methyl-2-oxo-2,3-dihydro-1H-benzo[d]imidazol-5-yl)oxy)methyl)piperidine-1-carboxylate]
DC50 (KRAS G12V): > 100 nM
DC50 (KRAS): ≥ 10 nM
DC50 (KRAS G12D; [1]): > 100 nM

CCc1c(F)ccc2cc(O)cc(-c3ncc4c(N5CCC[C@@](C)(O)C5)nc(OC[C@@]56CCCN5[C@H](CN5CCC7(CC5)CC(N5CCC(c8ccc9c(c8)n(C)c(=O)n9C8CCC(=O)NC8=O)CC5)C7)CC6)nc4c3F)c12 (stereo partly drawn) [Compound 471, 3-(5-(1-(7-(((3S,7aS)-7a-(((7-(8-Ethyl-7-fluoro-3-hydroxynaphthalen-1-yl)-8-fluoro-4-((R)-3-hydroxy-3-methylpiperidin-1-yl)pyrido[4,3-d]pyrimidin-2-yl)oxy)methyl)hexahydro-1H-pyrrolizin-3-yl)methyl)-7-azaspiro[3.5]nonan-2-yl)piperidin-4-yl)-3-methyl-2-oxo-2,3-dihydro-1H-benzo[d]imidazol-1-yl) piperidine-2,6-dione]
DC50 (KRAS G12V): > 100 nM
DC50 (KRAS): 1 to 10 nM
DC50 (KRAS G12D; class symbols): < 100 nM

CCc1c(F)ccc2cc(O)cc(-c3ncc4c(N5CCC[C@@](C)(O)C5)nc(OC[C@@]56CCCN5[C@H](COC(=O)N5CC7(CCN(CC8CCN(c9ccc%10c(c9)n(C)c(=O)n%10C9CCC(=O)NC9=O)CC8)CC7)C5)CC6)nc4c3F)c12 (stereo partly drawn) [Compound 452, ((3S,7aS)-7a-(((7-(8-ethyl-7-fluoro-3-hydroxynaphthalen-1-yl)-8-fluoro-4-((R)-3-hydroxy-3-methylpiperidin-1-yl)pyrido[4,3-d]pyrimidin-2-yl)oxy)methyl)hexahydro-1H-pyrrolizin-3-yl)methyl 7-((1-(1-(2,6-dioxopiperidin-3-yl)-3-methyl-2-oxo-2,3-dihydro-1H-benzo[d]imidazol-5-yl)piperidin-4-yl)methyl)-2,7-diazaspiro[3.5]nonane-2-carboxylate]
DC50 (KRAS G12V): < 10 nM
DC50 (KRAS): < 1 nM
DC50 (KRAS G12D; class symbols): < 100 nM

CCc1c(F)ccc2cc(O)cc(-c3ncc4c(N5CCC[C@@](C)(O)C5)nc(OC[C@@]56CCCN5[C@H](COC(=O)N5CCC(CC7CCN(c8ccc9c(c8)n(C)c(=O)n9C8CCC(=O)NC8=O)CC7)CC5)CC6)nc4c3F)c12 (stereo partly drawn) [Compound 98, [(3S,8S)-8-[[7-(8-ethyl-7-fluoro-3-hydroxy-1-naphthyl)-8-fluoro-4-[(3R)-3-hydroxy-3-methyl-1-piperidyl]pyrido[4,3-d]pyrimidin-2-yl]oxymethyl]-1,2,3,5,6,7-hexahydropyrrolizin-3-yl]methyl 4-[[1-[1-(2,6-dioxo-3-piperidyl)-3-methyl-2-oxo-benzimidazol-5-yl]-4-piperidyl]methyl]piperidine-1-carboxylate]
DC50 (KRAS G12V): < 10 nM
DC50 (KRAS): < 1 nM
DC50 (KRAS G12D; class symbols): < 100 nM
Dmax (KRAS G12D; class symbols): > 50%

CCc1c(F)ccc2cc(O)cc(-c3cc4nc(OC[C@@]56CCCN5[C@H](COC(=O)N5CCC(CN7CCC(c8ccc9c(c8)n(C)c(=O)n9C8CCC(=O)NC8=O)CC7)CC5)CC6)nc(N5CCC[C@@](C)(O)C5)c4cn3)c12 (stereo partly drawn) [Compound 377, ((3S,7aS)-7a-(((7-(8-ethyl-7-fluoro-3-hydroxynaphthalen-1-yl)-4-((R)-3-hydroxy-3-methylpiperidin-1-yl)pyrido[4,3-d]pyrimidin-2-yl)oxy)methyl)hexahydro-1H-pyrrolizin-3-yl)methyl 4-((4-(1-(2,6-dioxopiperidin-3-yl)-3-methyl-2-oxo-2,3-dihydro-1H-benzo[d]imidazol-5-yl)piperidin-1-yl)methyl)piperidine-1-carboxylate]
DC50 (KRAS G12V): < 10 nM
DC50 (KRAS): < 1 nM
DC50 (KRAS G12D; class symbols): < 100 nM

CCc1cccc2cc(O)cc(-c3ncc4c(N5CCC[C@@](C)(O)C5)nc(OC[C@@]56CCCN5[C@H](COC(=O)N5CCC(CN7CCC(c8ccc9c(c8)n(C)c(=O)n9C8CCC(=O)NC8=O)CC7)CC5)CC6)nc4c3F)c12 (some centres unmarked) [Compound 145]
DC50 (KRAS G12V): < 10 nM
DC50 (KRAS): 1 to 10 nM
DC50 (KRAS G12D; class symbols): < 100 nM

CCc1c(F)ccc2cc(O)cc(-c3ncc4c(N5CCC[C@@](C)(O)C5)nc(OC[C@@]56CCCN5[C@H](COC(=O)N5CCC(C)(CN7CCC(c8ccc9c(c8)n(C)c(=O)n9C8CCC(=O)NC8=O)CC7)CC5)CC6)nc4c3F)c12 (stereo partly drawn) [Compound 157, ((3S,7aS)-7a-(((7-(8-Ethyl-7-fluoro-3-hydroxynaphthalen-1-yl)-8-fluoro-4-((R)-3-hydroxy-3-methylpiperidin-1-yl)pyrido[4,3-d]pyrimidin-2-yl)oxy)methyl)hexahydro-1H-pyrrolizin-3-yl)methyl 4-((4-(1-(2,6-dioxopiperidin-3-yl)-3-methyl-2-oxo-2,3-dihydro-1H-benzo[d]imidazol-5-yl)piperidin-1-yl)methyl)-4-methylpiperidine-1-carboxylate]
DC50 (KRAS G12V): < 10 nM
DC50 (KRAS): < 1 nM
DC50 (KRAS G12D; [1]): > 100 nM

C#Cc1c(F)ccc2cc(O)cc(-c3ncc4c(N5CCCC(C#N)CC5)nc(OC[C@@]56CCCN5[C@H](COC(=O)N5CCC(CN7CCC(c8ccc9c(c8)n(C)c(=O)n9C8CCC(=O)NC8=O)CC7)CC5)CC6)nc4c3F)c12 (stereo partly drawn) [Compound 110, ((3S,7aS)-7a-(((4-(4-Cyanoazepan-1-yl)-7-(8-ethynyl-7-fluoro-3-hydroxynaphthalen-1-yl)-8-fluoropyrido[4,3-d]pyrimidin-2-yl)oxy)methyl)hexahydro-1H-pyrrolizin-3-yl)methyl 4-((4-(1-(2,6-dioxopiperidin-3-yl)-3-methyl-2-oxo-2,3-dihydro-1H-benzo[d]imidazol-5-yl)piperidin-1-yl)methyl) piperidine-1-carboxylate]
DC50 (KRAS G12V): < 10 nM
DC50 (KRAS): 1 to 10 nM
DC50 (KRAS G12D; class symbols): < 100 nM
Dmax (KRAS G12D; class symbols): > 50%

CCc1cccc2cc(O)cc(-c3cc4nc(OC[C@@]56CCCN5[C@H](COC(=O)N5CCC(CN7CCC(c8ccc9c(c8)n(C)c(=O)n9C8CCC(=O)NC8=O)CC7)CC5)CC6)nc(N5CCC[C@@](C)(O)C5)c4cn3)c12 (stereo partly drawn) [Compound 378, ((3S,7aS)-7a-(((7-(8-ethyl-3-hydroxynaphthalen-1-yl)-4-((R)-3-hydroxy-3-methylpiperidin-1-yl)pyrido[4,3-d]pyrimidin-2-yl)oxy)methyl)hexahydro-1H-pyrrolizin-3-yl)methyl 4-((4-(1-(2,6-dioxopiperidin-3-yl)-3-methyl-2-oxo-2,3-dihydro-1H-benzo[d]imidazol-5-yl)piperidin-1-yl)methyl)piperidine-1-carboxylate]
DC50 (KRAS G12V): < 10 nM
DC50 (KRAS): < 1 nM
DC50 (KRAS G12D; class symbols): < 100 nM

CCc1c(F)ccc2cc(O)cc(-c3ncc4c(N5CCC[C@@](C)(O)C5)nc(OC[C@@]56CCCN5[C@H](COC(=O)N5CCC7(CCC(N8CCC(c9ccc%10c(c9)n(C)c(=O)n%10C9CCC(=O)NC9=O)CC8)CC7)CC5)CC6)nc4c3F)c12 (stereo partly drawn) [Compound 465, ((3S,7aS)-7a-(((7-(8-ethyl-7-fluoro-3-hydroxynaphthalen-1-yl)-8-fluoro-4-((R)-3-hydroxy-3-methylpiperidin-1-yl)pyrido[4,3-d]pyrimidin-2-yl)oxy)methyl)hexahydro-1H-pyrrolizin-3-yl)methyl 9-(4-(1-(2,6-dioxopiperidin-3-yl)-3-methyl-2-oxo-2,3-dihydro-1H-benzo[d]imidazol-5-yl)piperidin-1-yl)-3-azaspiro[5.5]undecane-3-carboxylate]
DC50 (KRAS G12V): < 10 nM
DC50 (KRAS): < 1 nM
DC50 (KRAS G12D; class symbols): < 100 nM

CCc1c(F)ccc2cc(O)cc(-c3ncc4c(N5CCC[C@@](C)(O)C5)nc(OC[C@@]56CCCN5[C@H](COC(=O)N5CC7(CCN(CC#Cc8ccc9c(c8)n(C)c(=O)n9C8CCC(=O)NC8=O)CC7)C5)CC6)nc4c3F)c12 (stereo partly drawn) [Compound 453, ((3S,7aS)-7a-(((7-(8-Ethyl-7-fluoro-3-hydroxynaphthalen-1-yl)-8-fluoro-4-((R)-3-hydroxy-3-methylpiperidin-1-yl)pyrido[4,3-d]pyrimidin-2-yl)oxy)methyl)hexahydro-1H-pyrrolizin-3-yl)methyl 7-(3-(1-(2,6-dioxopiperidin-3-yl)-3-methyl-2-oxo-2,3-dihydro-1H-benzo[d]imidazol-5-yl)prop-2-yn-1-yl)-2,7-diazaspiro[3.5]nonane-2-carboxylate]
DC50 (KRAS G12V): < 10 nM
DC50 (KRAS): < 1 nM
DC50 (KRAS G12D; class symbols): < 100 nM

Source: US12599672B2, “KRAS proteolysis targeting chimeras” (PAQ Therapeutics Inc., priority 2023, dated 2026)
